Data: patent publication US20250179028A1, “ACRYLAMIDE COMPOUNDS” (NRG THERAPEUTICS LTD, priority 2022, published 2025)
Marks after values point to notes of the source that are not given here.

Columns and labels:
[1] = Microsomal clearance assay; type: in vitro ADME; details: rat liver microsomes; average value from two experiments
Protocol: The microsomal stability of test compounds was evaluated using rat liver microsomes (BiolVT) with and without the cofactors nicotinamide adenine dinucleotide phosphate (NADPH) and undine-diphosphate-glucuronic acid (UDPGA). Reactions were performed in a final volume of 250 μl pre-warmed (37° C.) 100 mM phosphate buffer containing 5 mM MgCl2, 0.025 mg/ml alamethicin, and 0.5 mg/ml rat liver microsomes. NADPH and UDPGA were included at 1 mM and 2 mM respectively, where appropriate. Reactions were started with the addition of 1 μM (final concentration) test compound. Verapamil was used as the positive control. Solutions were incubated in a water bath at 37° C. and aliquots collected at 0.5, 5, 15, 30 and 60 min. Reactions were stopped by the addition of 5 volumes of cold acetonitrile with internal standards (200 nM caffeine and 100 nM tolbutamide). Samples were centrifuged at 3220 g for 40 min. An aliquot of supernatant was diluted 1:1 In ultra-pure H2O, then used for LC-MS/MS analysis. Peak areas were determined from extracted ion chromatograms. The slope value, k, was determined by linear regression of the natural logarithm of the remaining percentage of the parent drug vs. incubation time curve. The in vitro half-life (in vitro t½) was determined from the slope value: in vitro t½=0.693/k. Conversion of the in vitro t½ (min) into the in vitro intrinsic clearance (in vitro CLint, in μL/min/mg protein) was done using the following equation (mean of duplicate determinations): […]

CYP2D6 = CYP2D6 (Homo sapiens (Human), UniProt P10635); test: Cytochrome P450 CYP2D6 inhibition in human liver microsomes; type: in vitro ADME; details: for inhibition at 20 min, 1 µM: probe dextromethorphan 2 µM (dextrorphan formation), 1 uM test compound, negative values = no effective inhibition; for inhibition at 20 min, 1 µM / IC50: human liver microsomes, average value from two experiments
Sequence of CYP2D6 (P10635 whole entry): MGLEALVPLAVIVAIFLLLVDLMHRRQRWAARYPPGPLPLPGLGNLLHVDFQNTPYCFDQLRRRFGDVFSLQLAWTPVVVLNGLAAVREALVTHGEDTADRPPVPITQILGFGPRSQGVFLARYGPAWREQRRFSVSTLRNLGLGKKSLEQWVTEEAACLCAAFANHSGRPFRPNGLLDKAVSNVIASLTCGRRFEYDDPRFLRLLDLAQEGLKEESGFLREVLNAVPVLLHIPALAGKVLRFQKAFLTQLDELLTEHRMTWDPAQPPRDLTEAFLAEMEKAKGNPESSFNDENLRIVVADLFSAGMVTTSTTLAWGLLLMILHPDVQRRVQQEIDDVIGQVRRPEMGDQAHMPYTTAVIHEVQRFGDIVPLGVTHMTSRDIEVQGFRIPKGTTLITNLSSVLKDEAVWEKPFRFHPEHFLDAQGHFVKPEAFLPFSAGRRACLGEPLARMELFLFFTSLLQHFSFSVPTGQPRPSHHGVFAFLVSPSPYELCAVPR
Procedure, shortened: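 Human liver microsomes (0.2 mg/mL) with 2 μM dextromethorphan in 100 mM PBS, test compound at 1 μM or 0.1-30 μM, 15 min preincubation then NADPH-started reaction for 20 min at 37° C, in duplicate. Dextrorphan formation by UPLC-MS/MS; IC50 from % decrease versus uninhibited control.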

mPTP = mPTP activity assay in isolated rat brain mitochondria; type: biochemical; details: isolated rat brain mitochondria
Protocol: mPTP activity was measured in brain mitochondria freshly isolated from female Sprague Dawley (250 to 300 gram) rats. Anaesthetised rats were perfused in-situ with ˜40 ml cold Dulbecco's Phosphate Buffered Saline (DPBS), then brains dissected and transferred into 30 ml Isolation Buffer (225 mM mannitol, 75 mM sucrose, 1 mM EGTA, adjusted to pH 7.4 with 1 M NaOH). The brain was minced using tweezers and a scalpel into ˜5 mm pieces then transferred into a 50 ml Potterton Dounce homogenization tube on ice containing 10 ml ice-cold isolation buffer (as above with addition of Complete Protease inhibitor; 1 tablet per 50 ml buffer).
Homogenisation was carried out using a […] pestle at 1800 rpm. The slurry was centrifuged at 2000 g for 10 min at 4° C., then the supernatant centrifuged at 12,000 g for 9 min. The pellet was resuspended with a dounce homogeniser in isolation buffer as above but with the addition of 0.02% digitonin, centrifuged at 12,000 g for 11 min and finally resuspended in 5 ml modified isolation buffer (as above but with EGTA reduced to 0.1 mM).
Test compounds were prepared in 384 well polypropylene assay plates as described above for the liver mitochondria assay. A stock mitochondria/Fluo5N assay solution was prepared in 5.6 ml assay buffer (120 mM mannitol, 40 mM MOPS, 5 mM KH2PO4, 60 mM KCl, 10 mM pyruvate, 2 mM malate, 2 mM MgCl2, 20 μM ADP, 1.26 μM oligomycin A, adjusted to pH 7.4) supplemented with Fluo5N pentapotassium salt (2 μM) and 1 ml mitochondria suspension, then transferred (15 μl) into the assay plate containing test compounds and incubated for 10 min at RT. Assay plates were then transferred to a FLIPR Tetra plate reader (Molecular Devices). Dye fluorescence was then measured every 3 sec for a total of 10 min. After 12 sec, a 2.5 μl bolus of Ca2+ (75 μM) was added from a source plate containing 675 μM CaCl2) in FLIPR assay buffer. IC50 values for test compounds were calculated using the fluorescence value collected at the 10 min timepoint with % inhibition calculated using the DMSO control and cyclosporin A values at […].

Row | Compound | microsomal CLint at 1 µM [1] [µL/min/mg] | inhibition at 20 min, 1 µM (CYP2D6) [%] | inhibition of CYP2D6 (in words) (CYP2D6) | IC50 (CYP2D6) [µM] | mPTP Rat brain pIC50 (mPTP) | mPTP Rat brain pIC50 (mPTP; average value from a larger number of experiments)
1 | CCn1c(=O)[nH]c2cc(/C=C/C(=O)Nc3cccc(F)c3C)ccc21 [Example 22, (E)-3-(1-ethyl-2-oxo-2,3-dihydro-1H-benzo[d]imidazol-5-yl)-N-(3-fluoro-2-methylphenyl)acrylamide] | 9.85 | 2.05 | – | – | – | –
2 | Cc1c(F)cccc1NC(=O)/C=C/c1ccc2cn[nH]c2c1 [Comparative Example 1, (E)-N-(2-methyl-3-fluorophenyl)-3-(1H-indazol-6-yl)acrylamide, reference compound] | 43 | 86.5 | highly potent inhibitor of CYP2D6 | 0.074 | 7.6 | 7.5***
3 | Cc1cccc(C)c1NC(=O)/C=C/c1ccc2c(c1)NC(=O)C2 [Example 19, (E)-N-(2,6-dimethylphenyl)-3-(2-oxoindolin-6-yl)acrylamide] | 20 | -3.04 | – | – | – | –
4 | Cc1c(F)cccc1NC(=O)/C=C/c1ccc2c(c1)[nH]c(=O)n2C1CC1 [Example 23, (E)-3-(1-cyclopropyl-2-oxo-2,3-dihydro-1H-benzo[d]imidazol-5-yl)-N-(3-fluoro-2-methylphenyl)acrylamide] | 9.8 | 0.7 | – | – | – | –
5 | CO[C@H]1Cc2ccccc2[C@@H]1NC(=O)/C=C/c1ccc2c(F)n[nH]c2c1 [Example 73, (E)-3-(3-fluoro-1H-indazol-6-yl)-N-((1S,2S)-2-methoxy-2,3-dihydro-1H-Inden-1-yl)acrylamide] | – | 34.6 | – | – | 7.7 | –
6 | CO[C@H]1Cc2ccccc2[C@@H]1NC(=O)/C=C/c1ccc2c(C)n[nH]c2c1 [Example 54, (E)-N-((1S,2S)-2-methoxy-2,3-dihydro-1H-inden-1-yl)-3-(3-methyl-1H-indazol-6-yl)acrylamide] | – | 8.2 | – | – | 7.7 | –
7 | Cc1n[nH]c2cc(/C=C/C(=O)NC3CCc4ccccc43)ccc12 (centres unmarked) [Example 25, (E)-N-(2,3-dihydro-1H-inden-1-yl)-3-(3-methyl-1H-indazol-6-yl)acrylamide] | 52.9 | 2.05 | – | 13.8 | – | –
8 | Cc1ccc(F)c(C)c1NC(=O)/C=C/c1ccc2c(c1)[nH]c(=O)n2C [Example 30, (E)-N-(3-fluoro-2,6-dimethylphenyl)-3-(1-methyl-2-oxo-2,3-dihydro-1H-benzo[d]imidazol-5-yl)acrylamide] | – | -3.33 | – | – | 7.6 | –
9 | Cc1c(F)cccc1NC(=O)/C=C/c1ccc2c(c1)[nH]c(=O)n2C [Example 7, (E)-N-(3-fluoro-2-methylphenyl)-3-(1-methyl-2-oxo-2,3-dihydro-1H-benzo[d]imidazol-5-yl)acrylamide] | 6.5 | 2.27 | – | > 30 | 6.9 | –

Now from value to compound:

Row | microsomal CLint at 1 µM [1] [µL/min/mg] | inhibition at 20 min, 1 µM (CYP2D6) [%] | inhibition of CYP2D6 (in words) (CYP2D6) | IC50 (CYP2D6) [µM] | mPTP Rat brain pIC50 (mPTP) | mPTP Rat brain pIC50 (mPTP; average value from a larger number of experiments) | Compound
10 | 36.8 | 1.91 | – | – | – | – | Cc1c(F)cccc1NC(=O)/C(F)=C/c1ccc2c(c1)NC(=O)C2 [Example 47, (Z)-2-fluoro-N-(3-fluoro-2-methylphenyl)-3-(2-oxoindolin-6-yl)acrylamide]
11 | 17 | 5.08 | – | 19 | – | – | Cc1c(F)cccc1NC(=O)/C=C/c1ccc2oc(=O)[nH]c2c1 [Example 6, (E)-N-(3-fluoro-2-methylphenyl)-3-(2-oxo-2,3-dihydrobenzo[d]oxazol-5-yl)acrylamide]
12 | 13 | 3.66 | – | > 30 | 6.5 | – | Cc1c(F)cccc1NC(=O)/C=C/c1ccc2c(c1)NC(=O)C2 [Example 10, (E)-N-(3-fluoro-2-methylphenyl)-3-(2-oxoindolin-6-yl)acrylamide]
13 | 17 | -2.57 | – | – | – | – | Cc1c(F)cccc1NC(=O)/C=C/c1ccc2c(c1F)NC(=O)C2 [Example 5, (E)-N-(3-fluoro-2-methylphenyl)-3-(7-fluoro-2-oxoindolin-6-yl)acrylamide]
14 | 13 | 3.13 | – | – | – | – | Cc1c(F)cccc1NC(=O)/C=C/c1ccc2c(c1)NC(=O)C2C (centres unmarked) [Example 8, (E)-N-(3-fluoro-2-methylphenyl)-3-(3-methyl-2-oxoindolin-6-yl)acrylamide]
